{"source": "patent US20190030018A1", "about": "(Celgene Corporation, priority 2017, published 2019)", "key": {"[1]": {"tested_on": "IDH2 mutant cell line TF1-R140Q", "assay": "Proliferation (total, HSC and progenitor cell count) in the TF1 assay", "type": "cell-based", "method": "(§1) Cells were plated at a density of 0.2e^6 cells/ml of 2 ml culture in 6 well plates.\n(§2) TF1 cells were cultured in the following media: RPMI containing HEPES and L-glutamine, 10% FBS, Pen/Strep, G418 (final conc 500 μg/ml), and GM-CSF (final conc 5 ng/ml). The cells were cultured for 7 days, with or without compound treatment as described in FIG. 91.\n(§3) For the hemoglobinization assay, TF1 cells were washed three times with PBS to remove residual GM-CSF then plated at (100,000 cells/ml). Cells were then induced to differentiate using EPO (2 unit/ml). Induction continued for 7 days with changing media on 4th day and adding media with fresh EPO. The cell pellets were collected and imaged for hemoglobinization content (as a surrogate for differentiation into blood lineage). Cells were pelleted, washed, stained with a panel of antibodies and analyzed by flow cytometry, using the following antibodies: […]"}, "[2]": {"tested_on": "IDH2 mutant cell line TF1-R140Q", "assay": "Hemoglobinization / EPO induced differentiation assay with flow cytometry", "type": "cell-based", "conditions": "EPO induction 7 days", "method": "as §1\nFIG. 91 provides the dosing schedules used in this study.\nas §2, §3"}, "[3]": {"tested_on": "JAK2V617F AML cell lines HEL, SET-2, MUTZ-8", "assay": "Combination studies with JAK2 inhibitors in AML cell lines, CellTitre-Glo after 3 days", "type": "cell-based", "quoted_text": "The cell viability was measured by CellTitre-Glo® after 3 days as described elsewhere herein."}, "[4]": {"conditions": "patients, literature value; read-out: clinical Cmax; cited from earlier work"}, "AML cell lines": {"tested_on": "AML cell lines", "assay": "In vitro combination studies, CellTitre-Glo cell viability (Bliss, Loewe, HSA, CES synergy analysis)", "conditions": "FLT3 and JAK inhibitors in combination with Compound 1 in MOLM-13 and NOMO-1 cell lines", "quoted_text": "where EA and EB represent the effect of each single agent and EAB represents the effect of the combination at a given dose.\nAll data was analyzed using the CES equation:\nIn cases where single agent dose response fit a Hill slope, the CES analysis was compared to Loewe, Bliss, and HSA models."}, "[5]": {"tested_on": "IL3 independent JAK2 V617F BaF3 cells", "assay": "Combination studies with JAK2 inhibitors in engineered BaF3 cells, CellTitre-Glo after 3 days", "type": "cell-based", "conditions": "compared to the IL3 dependent lines", "method": "Everolimus was included as a control. The cell viability was then measured by CellTitre-Glo® after 3 days."}, "physchem": {"assay": "physchem", "type": "physicochemical", "excerpt": "“Compound 1, Form C” or “Form C” or “API”” in the Examples herein refers to polymorph Form C of 2-(4-chlorophenyl)-N-((2-(2,6-dioxopiperidin-3-yl)-1-oxoisoindolin-5-yl)methyl)-2,2-difluoroacetamide. “Compound 1, Form A” or “Form A” in the Examples herein refers to polymorph Form A of 2-(4-chlorophenyl)-N-((2-(2,6-dioxopiperidin-3-yl)-1-oxoisoindolin-5-yl)methyl)-2,2-difluoroacetamide."}, "[6]": {"assay": "Dynamic vapor sorption (DVS) of solid forms", "type": "physicochemical", "conditions": "relative humidity increased from about 0% to about 90% RH", "method": "In certain embodiments, Form A is characterized by dynamic vapor sorption analysis. […] In certain embodiments, Form A comprises less than 0.1% water as determined in a coulometric Karl Fischer (KF) titrator equipped with an oven sample processor set at 225° C.\nIn certain embodiments, Form B is characterized by dynamic vapor sorption analysis. […] In certain embodiments, Form B comprises less than 0.1% water as determined in a coulometric Karl Fischer (KF) titrator equipped with an oven sample processor set at 225° C.\nIn certain embodiments, Form C is characterized by dynamic vapor sorption analysis. […] In certain embodiments, Form C comprises less than 0.1% water as determined in a coulometric Karl Fischer (KF) titrator equipped with an oven sample processor set at 225° C."}, "KG-1": {"tested_on": "KG-1", "assay": "In vitro combination studies, CellTitre-Glo cell viability", "conditions": "KG-1; in combination with Compound 1"}, "[7]": {"tested_on": "GSPT1 expression, mTOR activation, Mcl-1 expression and Caspase-3 cleavage in AML cells", "assay": "Immunoblot analysis of AML cells treated with Compound 1 and everolimus", "type": "cell-based", "excerpt": "Whole cell extracts were collected and subjected to immunoblot analysis."}, "ML-2": {"tested_on": "ML-2", "assay": "In vitro combination studies, CellTitre-Glo cell viability", "conditions": "ML-2; in combination with Compound 1"}, "MV-4-11": {"tested_on": "MV-4-11", "assay": "In vitro combination studies, CellTitre-Glo cell viability", "conditions": "MV-4-11; in combination with Compound 1"}, "F-36-P": {"tested_on": "F-36-P", "assay": "In vitro combination studies, CellTitre-Glo cell viability", "conditions": "F-36-P; in combination with Compound 1"}, "NOMO-1": {"tested_on": "NOMO-1", "assay": "In vitro combination studies, CellTitre-Glo cell viability", "conditions": "NOMO-1; in combination with Compound 1"}, "[8]": {"tested_on": "primary human tumor xenograft model GA0087", "assay": "HuPrime gastric cancer xenograft GA0087 model, in vivo efficacy", "set-up": "species or system female BALB/c nude mice", "conditions": "single agent, 1.25 mg/kg and 5 mg/kg", "excerpt": "Tumor fragments from stock mice were harvested and used for inoculation into mice. Each mouse was inoculated subcutaneously at the right flank with primary human tumor xenograft model GA0087 tumor fragment (P7, 2-3 mm in diameter) for tumor development. […] After tumor inoculation, the animals were checked daily for morbidity and mortality. At the time of routine monitoring, the animals were checked for any effects of tumor growth and treatments on normal behavior such as mobility, food and water consumption, body weight gain/loss, eye/hair matting and any other abnormal effect. Death of euthanized mouse was recorded. All groups were terminated on Day 40. Three tumors in each group, with tumor volume near median of each group were collected. Plasma of the same mice were collected. For comparison among three or more groups, one-way ANOVA was performed followed by multiple comparison procedures. All data were analyzed using SPSS 18.0. P values <0.05 is considered to be statistically significant."}, "OCI-AML-2": {"tested_on": "OCI-AML-2", "assay": "In vitro combination studies, CellTitre-Glo cell viability", "conditions": "OCI-AML-2; in combination with Compound 1"}, "[9]": {"assay": "GA0087 PDX model ex vivo 3D methylcellulose CellTiter-Glo cell viability assay (IC50, matrix combination, Combination Index)", "conditions": "read-out: Absolute IC50", "quoted_text": "(§4) Materials and Methods: The stomach cancer cell line GA0087 was used in this study. […] Culture media was purchased from GIBCO or Sigma, USA.\n(§5) Everolimus was obtained from Selleck. Cisplatin was used as a reference drug, and was obtained from Hospira Australia pty Ltd.\n(§6) PDX tumor models were maintained at Crownbio HuPrime animal facility. Tumor growth was monitored weekly. Tumor volumes were measured in two dimensions using a caliper, and the volume was expressed in mm^3 using the formula: V=0.5 a×b^2 where a and b are the long and short diameters of the tumor, respectively. • 2. Mouse xenografts at tumor volume around 800 mm^3 were housed with sterile surgical tools and tumor tissue was minced into tiny pieces with scissors in small amount of PBS on a new tissue culture plate. • 3. The cell suspension was filtered through Falcon cell strainer. The nylon mesh was washed 3-5 times with PBS. • 4. The cell suspension was centrifuged at 1000 rpm for 5 minutes and the pellet was washed with PBS and centrifuged again. • 5. Red blood cells were removed using red blood cell lysis buffer. • 6. The cell suspension was centrifuged at 1000 rpm for 5 minutes and the pellet was washed with PBS and centrifuged again. • 7. The cell pallet was re-suspended with appropriate cell culture media for different cells. • 8. Cells were counted with Countstar by trypan blue exclusion.\n(§7) Day −1: Cell Plating • 1. The cells were harvested during the logarithmic growth period. The harvested cells were cultured with appropriate cell media and centrifuged at 1000 rpm for 3 minutes. […] (Cell concentration was adjusted according to the data base or density optimization assay). • 3. 3.5 mL of cell suspension was mixed with 6.5 mL of 1% methylcellulose. […] 90 μL cell suspensions were added to 96-well plates according to plate map with final cell density. Two duplicate plates were set up: one for day 0 reading (T0) and the other was cultured in incubator for reading at the end point.\n(§8) Day 0: T0 Plate Reading and Compound Treatment • 5.10 μL culture medium was added to T0 plate in each well for T0 reading. • 6.100 μl CellTiter-Glo® Reagent was added to each well. • 7. The contents were mixed for 2 minutes on an orbital shaker to facilitate cell lysis. • 8. The plates were allowed to incubate at room temperature for 10 minutes to stabilize luminescent signal. • 9. A backseal black sticker was placed to the bottom of each plate. • 10. The luminescence was read using EnVision Multi Label Reader. • 11.\n(§9) The solutions were stored at −20° C. […] The response score was calculated by normalizing to DMSO control. The combination index (CI) was calculated using Chou and Talalay method, wherein a CI of less than 1 indicates synergy. Cisplatin was used as control in the single compound dose response, but was not included in the combination test.\n(§10) After drug incubation, pictures for representative wells were taken using a phase contrast microscope. • 13. 100 μL CellTiter-Glo® Reagent was added to each well. • 14. Contents were mixed for 2 minutes on an orbital shaker to facilitate cell lysis. • 15. The plates were allowed to incubate at room temperature for 10 minutes to stabilize luminescent signal. • 16. Backseal black sticker was placed to the bottom of each plate. • 17. Luminescence was recorded using EnVision Multi Label Reader.\n(§11) In order to calculate IC50, a dose-response curve was fitted using nonlinear regression model with a sigmoidal dose response. The formula of surviving rate is shown below, and the IC50 was automatically produced by GraphPad Prism 5.0.\n(§12) The surviving rate (%)=(LumTest article−LumMedium control)/(LumNone treated−LumMedium control)×100%."}, "[10]": {"tested_on": "stomach cancer cell line GA0087", "assay": "GA0087 PDX model ex vivo 3D methylcellulose CellTiter-Glo cell viability assay (IC50, matrix combination, Combination Index)", "quoted_text": "as §4, §5, §6, §7, §8, §9, §10, §11, §12"}, "MOLM-13": {"tested_on": "MOLM-13", "assay": "In vitro combination studies, CellTitre-Glo cell viability", "conditions": "MOLM-13; in combination with Compound 1"}, "[11]": {"tested_on": "human QGP1 pancreatic somatostatinoma xenografts", "quoted_text": "Treatment began on Day 1 in nine groups of mice (n=10) with established subcutaneous QGP1 tumors. […] Tumors were measured using calipers twice each week to the end of the study on Day 52. Three tumors at or near the group median tumor volume 2000 mm^3 endpoint were sampled from each group.\nTreatment efficacy was based on tumor growth inhibition (TGI), defined as the difference between the final (Day 52) median tumor volumes (MTVs) of treated and control mice. The results were analyzed utilizing the Mann-Whitney U-test, and were deemed statistically significant at P≤0.05. Drug tolerability was assessed by body weight measurements and by frequent observation of treated animals."}, "HNT-34": {"tested_on": "HNT-34", "assay": "In vitro combination studies, CellTitre-Glo cell viability", "conditions": "HNT-34; in combination with Compound 1"}, "[12]": {"tested_on": "GSPT1 and mTORC1 effectors in BON cells", "assay": "Western blot of BON cell lysates after 120 h treatment", "type": "cell-based", "method": "BON cells were cultured in DMEM: F12K media containing 10% fetal bovine serum and penicillin/streptomycin antibiotics. […] Cells were harvested and probed with antibodies for western blots and imaged using a Li-Cor Odyssey imaging system. All total and phosphorylated antibodies were obtained from Cell Signaling Technology."}, "HL-60": {"tested_on": "HL-60", "assay": "In vitro combination studies, CellTitre-Glo cell viability", "conditions": "HL-60; in combination with Compound 1"}, "OCT-AML-3": {"tested_on": "OCT-AML-3", "assay": "In vitro combination studies, CellTitre-Glo cell viability", "conditions": "OCI-AML-3; in combination with Compound 1"}}, "note": "Like-named read-outs stand apart in the source and are kept apart here."}
{"molecule": "CC(C)(O)CNc1nc(Nc2ccnc(C(F)(F)F)c2)nc(-c2cccc(C(F)(F)F)n2)n1", "note": "[enasidenib, reference compound]", "values": [{"measurement": "proliferation (total, HSC and progenitor cell count)", "setting": "[1]", "result": "mild growth promoting effect"}, {"measurement": "hemoglobin expression", "setting": "[2]", "result": "increase in hemoglobin expression"}]}
{"molecule": "C[C@H](Nc1cc(-c2cnn(C)c2)cc(Nc2cnccn2)n1)c1ccc(F)cc1", "note": "[NS-018]", "values": [{"measurement": "cell viability, single agent", "setting": "[3]", "result": "inhibit cell viability"}, {"measurement": "Cmax", "setting": "[4]", "result": 2570, "unit": "nM"}, {"measurement": "Synergy", "setting": "AML cell lines", "result": "Yes"}, {"measurement": "single agent sensitivity", "setting": "[5]", "result": "more sensitive"}]}
{"molecule": "O=C1CCC(N2Cc3cc(CNC(=O)C(F)(F)c4ccc(Cl)cc4)ccc3C2=O)C(=O)N1", "note": "(stereo not drawn) [Form C, 2-(4-chlorophenyl)-N-((2-(2,6-dioxopiperidin-3-yl)-1-oxoisoindolin-5-yl)methyl)-2,2-difluoroacetamide]", "values": [{"measurement": "thermodynamic stability among the crystal forms", "setting": "physchem", "result": "most thermodynamically stable anhydrate"}, {"measurement": "water uptake (DVS)", "setting": "[6]", "result": "about 0.6 % w/w"}]}
{"molecule": "O=C1CCC(N2Cc3cc(CNC(=O)C(F)(F)c4ccc(Cl)cc4)ccc3C2=O)C(=O)N1", "note": "(stereo not drawn) [Form B, 2-(4-chlorophenyl)-N-((2-(2,6-dioxopiperidin-3-yl)-1-oxoisoindolin-5-yl)methyl)-2,2-difluoroacetamide]", "values": [{"measurement": "water uptake (DVS)", "setting": "[6]", "result": "about 1.4 % w/w"}]}
{"molecule": "N#CC[C@H](C1CCCC1)n1cc(-c2ncnc3[nH]ccc23)cn1", "note": "[ruxolitinib]", "values": [{"measurement": "Cmax", "setting": "[4]", "result": "500 to 1000", "unit": "nM"}]}
{"molecule": "CO[C@H]1C[C@@H]2CC[C@@H](C)[C@@](O)(O2)C(=O)C(=O)N2CCCC[C@H]2C(=O)O[C@H]([C@H](C)C[C@@H]2CC[C@@H](OCCO)[C@H](OC)C2)CC(=O)[C@H](C)/C=C(\\C)[C@@H](O)[C@@H](OC)C(=O)[C@H](C)C[C@H](C)/C=C/C=C/C=C/1C", "note": "[everolimus, reference compound]", "values": [{"measurement": "Synergy analysis for combinations with Compound 1", "setting": "KG-1", "result": "No"}, {"measurement": "GSPT1 expression/degradation, Mcl-1 loss, Caspase-3 cleavage", "setting": "[7]", "result": "minimal effect"}, {"measurement": "activation of the mTOR pathway (phosphorylation of S6K1 and 4E-BP1)", "setting": "[7]", "result": "significantly blocked the activation of the mTOR pathway"}, {"measurement": "Synergy analysis for combinations with Compound 1", "setting": "ML-2", "result": "Yes"}, {"measurement": "Synergy analysis for combinations with Compound 1", "setting": "MV-4-11", "result": "Yes"}, {"measurement": "Synergy analysis for combinations with Compound 1", "setting": "F-36-P", "result": "Yes"}, {"measurement": "Synergy analysis for combinations with Compound 1", "setting": "NOMO-1", "result": "No"}, {"measurement": "anti-tumor activity", "setting": "[8]", "result": "moderate anti-tumor activity"}, {"measurement": "Synergy analysis for combinations with Compound 1", "setting": "OCI-AML-2", "result": "Yes"}, {"measurement": "IC50", "setting": "[9]; GA0087-1st experiment", "result": 6.1, "unit": "nM"}, {"measurement": "IC50", "setting": "[9]; GA0087-2nd experiment", "result": 7.5, "unit": "nM"}, {"measurement": "Maximal Inhibition", "setting": "[10]; GA0087-1st experiment", "result": 73.15, "unit": "%"}, {"measurement": "Maximal Inhibition", "setting": "[10]; GA0087-2nd experiment", "result": 72.80, "unit": "%"}, {"measurement": "single agent sensitivity", "setting": "[5]", "result": "more sensitive"}, {"measurement": "Synergy analysis for combinations with Compound 1", "setting": "MOLM-13", "result": "Yes"}, {"measurement": "tumor growth inhibition", "setting": "[11]; 3 mg/kg i.p. qd x 21, Day 52", "result": 41, "unit": "%"}, {"measurement": "tumor growth inhibition", "setting": "[11]; 10 mg/kg i.p. qd x 21, Day 52", "result": 39, "unit": "%"}, {"measurement": "Synergy analysis for combinations with Compound 1", "setting": "HNT-34", "result": "No"}, {"measurement": "effect on mTORC1 effectors (p4EBP1, phosphorylation of S6)", "setting": "[12]", "result": "dramatically decreased phosphorylation of S6 and phosphorylation of 4EBP1"}, {"measurement": "Synergy analysis for combinations with Compound 1", "setting": "HL-60", "result": "No"}, {"measurement": "Synergy analysis for combinations with Compound 1", "setting": "OCT-AML-3", "result": "Yes"}]}
{"molecule": "O=C1CCC(N2Cc3cc(CNC(=O)C(F)(F)c4ccc(Cl)cc4)ccc3C2=O)C(=O)N1", "note": "(stereo not drawn) [Form A, 2-(4-chlorophenyl)-N-((2-(2,6-dioxopiperidin-3-yl)-1-oxoisoindolin-5-yl)methyl)-2,2-difluoroacetamide]", "values": [{"measurement": "water uptake (DVS)", "setting": "[6]", "result": "about 1.2 % w/w"}]}
{"molecule": "Nc1nc(Nc2ccnc(C(F)(F)F)c2)nc(-c2cccc(C(F)(F)F)n2)n1", "note": "[Compound 2, 6-(6-(trifluoromethyl)pyridin-2-yl)-N^2-(2-(trifluoromethyl)pyridin-4-yl)-1,3,5-triazine-2,4-diamine]", "values": [{"measurement": "hemoglobin expression", "setting": "[2]", "result": "increase in hemoglobin expression"}]}
